From patent US11096985B2, “Antimicrobial peptides, their variants and uses” (priority 2015, dated 2021)
Where a SMILES comes first, the peptide text is derived from it. [ ]: non-standard residue; d: D form.

Legend:
[1] = test system: clinical strains of Proteus mirabilis; experiment: MIC, clinical strains of Proteus mirabilis; format: cell-based; parameters: unit: µg/mL; conditions: microdilution, Muller Hinton broth-cation adjusted, 0.02% BSA, 0.2% acetic acid
Protocol: (§1) Minimum inhibition concentrations (MICs) were determined against Escherichia coli (ATCC 25922), Staphylococcus aureus (ATCC 25923), Klebsiella pneumoniae (ATCC 10031) and Pseudomonas aeruginosa (ATCC 27853). Also clinical strains of E. coli, K. pneumoniae, E. cloacae, P. aeruginosa, Serratia marcescens, Proteus mirabilis, S. pneumoniae, Acinetobacter baumannii, A. johnsonii and S. aureus were used for MICs assays. Additionally, clinical strains of yeast including Candida albicans, C. glabrata, C. parapsilosis and C. quillermondiae were used. The susceptibility of these microorganisms to Chain peptides were determined using micro broth dilution assay. Colonies of the respective microorganism from Muller Hinton (MH) agar plates incubated overnight were suspended in MH broth media and final concentration of microorganism was adjusted to 5.0×10^5 cfu/ml. An aliquot of 10 μl of each Chain peptide, or gentamicin, tetracycline as reference antibiotics were added in differing concentrations along with 90 μl of bacterial suspension to 96 well polypropylene plates and incubated at 37° C. for 20 to 24 hours. Concentrations of Chain peptides and reference antibiotics ranged from 0.125 to 128 μg/ml and the MICs were recorded as the lowest concentration with no visual growth of bacteria. Similarly, antifungal MICs were tested in Potato dextrose broth.
(§2) Clinical strains of yeasts including Candida albicans, C. glabrata, C. parapsilosis and C. quillermondiae were also tested with the 12 Chain peptides. The minimum inhibitory concentration (MICs) varied between these peptides and are presented in Tables 4a, 4b, 4c and 5a, 5b, 5c. Peptides Chain 105, 201 and 308 are broad spectrum antimicrobials with MICs between 0.5-32 μg/ml against all the bacteria and yeasts tested, except Serratia marcescens and Proteus mirabilis, against which the MICs were between 64-128 μg/ml. Peptide Chain 306 has narrow spectrum activity against E.coli at 1 μg/ml and for the rest of the bacterial strains at >32 μg/ml (FIG. 10).

[2] = test system: clinical strains of Candida albicans; experiment: MIC, clinical yeast strains, Candida albicans; format: cell-based; parameters: unit: μg/ml
Outline: (§3)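 MH broth; 5.0×10^5 cfu/ml; peptides 0.125–128 μg/ml; 37° C., 20–24 h; visual no-growth endpoint. Fungal MICs in potato dextrose broth.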

[3] = test system: clinical strains of Pseudomonas aeruginosa; experiment: MIC, clinical strains of P. aeruginosa; format: cell-based; parameters: unit: μg/ml; conditions: microdilution, Muller Hinton broth-cation adjusted, 0.02% BSA, 0.2% acetic acid
Protocol: as §1, §2

[4] = test system: clinical strains of Klebsiella pneumoniae; experiment: MIC, clinical strains of K. pneumoniae; format: cell-based; parameters: unit: μg/ml; conditions: microdilution, Muller Hinton broth-cation adjusted, 0.02% BSA, 0.2% acetic acid
Protocol: as §1, §2

[5] = test system: clinical strains of C. quillermondiae; experiment: MIC, clinical yeast strains, C. quillermondiae; format: cell-based; conditions: C. quillermondiae clinical yeast strain 1
Outline: as §3

[6] = test system: clinical strains of Enterobacter cloacae; experiment: MIC, clinical strains of Enterobacter cloacae; format: cell-based; parameters: unit: μg/ml; conditions: microdilution, Muller Hinton broth-cation adjusted, 0.02% BSA, 0.2% acetic acid
Protocol: as §1, §2

[7] = test system: clinical strains of C. parapsilosis; experiment: MIC, clinical yeast strains, C. parapsilosis; format: cell-based, Candida parapsilosis; parameters: unit: μg/ml
Outline: as §3

[8] = test system: clinical strains of Streptococcus pneumoniae; experiment: MIC, clinical strains of Streptococcus pneumoniae; format: cell-based; parameters: unit: µg/mL; conditions: microdilution, Muller Hinton broth-cation adjusted, 0.02% BSA, 0.2% acetic acid
Protocol: as §1, §2

[9] = test system: clinical strains of Staphylococcus aureus; experiment: MIC, clinical strains of S. aureus; format: cell-based; parameters: unit: μg/ml; conditions: microdilution, Muller Hinton broth-cation adjusted, 0.02% BSA, 0.2% acetic acid
Protocol: as §1, §2

[10] = test system: clinical strains of Escherichia coli; experiment: MIC, clinical strains of E. coli; format: cell-based; parameters: unit: μg/ml; conditions: microdilution, Muller Hinton broth-cation adjusted, 0.02% BSA, 0.2% acetic acid
Protocol: as §1, §2

[11] = test system: clinical strains of C. glabrata; experiment: MIC, clinical yeast strains, C. glabrata; format: cell-based, Candida glabrata; parameters: unit: μg/ml
Outline: as §3

[12] = test system: clinical strains of Serratia marcescens; experiment: MIC, clinical strains of Serratia marcescens; format: cell-based; parameters: unit: µg/mL; conditions: microdilution, Muller Hinton broth-cation adjusted, 0.02% BSA, 0.2% acetic acid
Protocol: as §1, §2

## CC[C@@H](C)[C@@H](N)C(=O)N[C@H](Cc1c[nH]c2ccccc12)C(=O)N[C@H](CCCCN)C(=O)N[C@H](CCCNC(=N)N)C(=O)N[C@H](Cc1ccccc1)C(=O)N[C@H](CCCNC(=N)N)C(=O)N[C@H](CC(C)C)C(=O)N[C@H](Cc1ccccc1)C(=O)N[C@H](CCCCN)C(=O)N[C@H](CCCCN)C(=O)N[C@H](Cc1c[nH]c2ccccc12)C(=O)O [Chain304D] (H-[dI][dW][dK][dR][dF][dR][dL][dF][dK][dK][dW]-OH)
[1]; Proteus mirabilis clinical strain 1
  Minimum inhibitory concentration: >128
[1]; Proteus mirabilis clinical strain 2
  Minimum inhibitory concentration: >128
[1]; Proteus mirabilis clinical strain 3
  Minimum inhibitory concentration: >128
[1]; Proteus mirabilis clinical strain 4
  Minimum inhibitory concentration: >128
[1]; Proteus mirabilis clinical strain 5
  Minimum inhibitory concentration: >128
[2]; Candida albicans clinical yeast strain 1
  Minimum inhibitory concentration: 16
[2]; Candida albicans clinical yeast strain 2
  Minimum inhibitory concentration: 16
[2]; Candida albicans clinical yeast strain 3
  Minimum inhibitory concentration: 16
[2]; Candida albicans clinical yeast strain 4
  Minimum inhibitory concentration: 16
[2]; Candida albicans clinical yeast strain 5
  Minimum inhibitory concentration: 32
[3]; Pseudomonas aeruginosa clinical strain 1
  Minimum inhibitory concentration: 32
[3]; Pseudomonas aeruginosa clinical strain 2
  Minimum inhibitory concentration: 64
[3]; Pseudomonas aeruginosa clinical strain 3
  Minimum inhibitory concentration: 64
[3]; Pseudomonas aeruginosa clinical strain 4
  Minimum inhibitory concentration: 64
[3]; Pseudomonas aeruginosa clinical strain 5
  Minimum inhibitory concentration: 16
[4]; Klebsiella pneumoniae clinical strain 1
  Minimum inhibitory concentration: >128
[4]; Klebsiella pneumoniae clinical strain 2
  Minimum inhibitory concentration: >128
[4]; Klebsiella pneumoniae clinical strain 3
  Minimum inhibitory concentration: >128
[4]; Klebsiella pneumoniae clinical strain 4
  Minimum inhibitory concentration: >128
[4]; Klebsiella pneumoniae clinical strain 5
  Minimum inhibitory concentration: 64
[5]
  Minimum inhibitory concentration: 16
[6]; Enterobacter cloacae clinical strain 1
  Minimum inhibitory concentration: 64
[6]; Enterobacter cloacae clinical strain 2
  Minimum inhibitory concentration: 64
[6]; Enterobacter cloacae clinical strain 3
  Minimum inhibitory concentration: 128
[6]; Enterobacter cloacae clinical strain 4
  Minimum inhibitory concentration: 128
[6]; Enterobacter cloacae clinical strain 5
  Minimum inhibitory concentration: 32
[7]; C. parapsilosis clinical yeast strain 1
  Minimum inhibitory concentration: 64
[7]; C. parapsilosis clinical yeast strain 2
  Minimum inhibitory concentration: 64
[7]; C. parapsilosis clinical yeast strain 3
  Minimum inhibitory concentration: 32
[7]; C. parapsilosis clinical yeast strain 4
  Minimum inhibitory concentration: 16
[8]; Streptococcus pneumoniae clinical strain 1
  Minimum inhibitory concentration: 128
[8]; Streptococcus pneumoniae clinical strain 2
  Minimum inhibitory concentration: 128
[8]; Streptococcus pneumoniae clinical strain 3
  Minimum inhibitory concentration: 128
[8]; Streptococcus pneumoniae clinical strain 4
  Minimum inhibitory concentration: 128
[8]; Streptococcus pneumoniae clinical strain 5
  Minimum inhibitory concentration: 64
[9]; Staphylococcus aureus clinical strain 1
  Minimum inhibitory concentration: 32
[9]; Staphylococcus aureus clinical strain 2
  Minimum inhibitory concentration: 32
[9]; Staphylococcus aureus clinical strain 3
  Minimum inhibitory concentration: 16
[9]; Staphylococcus aureus clinical strain 4
  Minimum inhibitory concentration: 16
[9]; Staphylococcus aureus clinical strain 5
  Minimum inhibitory concentration: 16
[10]; Escherichia coli clinical strain 1
  Minimum inhibitory concentration: 1
[10]; Escherichia coli clinical strain 2
  Minimum inhibitory concentration: 16
[10]; Escherichia coli clinical strain 3
  Minimum inhibitory concentration: 16
[10]; Escherichia coli clinical strain 4
  Minimum inhibitory concentration: 32
[10]; Escherichia coli clinical strain 5
  Minimum inhibitory concentration: 32
[11]; C. glabrata clinical yeast strain 1
  Minimum inhibitory concentration: 16
[11]; C. glabrata clinical yeast strain 2
  Minimum inhibitory concentration: 16
[11]; C. glabrata clinical yeast strain 3
  Minimum inhibitory concentration: 8
[11]; C. glabrata clinical yeast strain 4
  Minimum inhibitory concentration: 64
[12]; Serratia marcescens clinical strain 1
  Minimum inhibitory concentration: >128
[12]; Serratia marcescens clinical strain 2
  Minimum inhibitory concentration: >128
[12]; Serratia marcescens clinical strain 3
  Minimum inhibitory concentration: >128
[12]; Serratia marcescens clinical strain 4
  Minimum inhibitory concentration: >128
[12]; Serratia marcescens clinical strain 5
  Minimum inhibitory concentration: >128
